Experimental data from US11702404B2, “GLP-1R modulating compounds” (priority 2019, dated 2023).
pEC50: −log10 of the molar value. Like-named read-outs stand apart in the source and are kept apart here.

Key:
[1] = Microsomal stability, human liver microsomes (predicted hepatic clearance); details: predicted from in vitro microsomal stability data
[2] = biological target: GLP-1R (Homo sapiens, UniProt P43220); test: GLP-1R activation: cAMP increase in CHO cells stably expressing GLP-1R; type: cell-based; details: for pEC50: cAMP increase, CHO cells stably expressing GLP-1R, 10 point dose response, 30 minutes incubation, read-out: EC50
Chain of GLP-1R (P43220 24-463): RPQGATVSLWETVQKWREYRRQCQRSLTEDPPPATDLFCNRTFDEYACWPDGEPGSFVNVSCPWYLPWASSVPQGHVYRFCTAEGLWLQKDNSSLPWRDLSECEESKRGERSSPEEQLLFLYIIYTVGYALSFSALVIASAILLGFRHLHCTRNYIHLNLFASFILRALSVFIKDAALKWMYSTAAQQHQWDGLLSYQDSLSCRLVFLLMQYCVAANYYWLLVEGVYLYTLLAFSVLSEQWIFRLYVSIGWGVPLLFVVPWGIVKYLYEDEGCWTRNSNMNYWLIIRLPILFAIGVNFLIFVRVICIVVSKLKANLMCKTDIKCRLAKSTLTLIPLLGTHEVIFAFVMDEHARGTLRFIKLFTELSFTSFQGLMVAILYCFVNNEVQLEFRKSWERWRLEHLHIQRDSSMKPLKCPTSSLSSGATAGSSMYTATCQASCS

SMILES: COCCn1c(Cc2ccc(-c3cccc(OCc4ccc(C#N)cc4F)n3)cc2C#N)nc2ccc(C(=O)O)cc21 [Example 22, 2-(2-cyano-4-(6-((4-cyano-2-fluorobenzyl)oxy)pyridin-2-yl)benzyl)-1-(2-methoxyethyl)-1H-benzo[d]imidazole-6-carboxylic acid]
- Predicted Hepatic Clearance (Pred. Cl.) [1]: 3 mL/min/kg
- pEC50 [2]: 9.11

SMILES: COC[C@@H](C)n1c(Cc2cc(F)c(-c3cccc(OCc4ccc(C#N)cc4F)n3)cc2F)nc2ccc(C(=O)O)cc21 [Example 560, (R)-2-(4-(6-((4-cyano-2-fluorobenzyl)oxy)pyridin-2-yl)-2,5-difluorobenzyl)-1-(1-methoxypropan-2-yl)-1H-benzo[d]imidazole-6-carboxylic acid]
- Predicted Hepatic Clearance (Pred. Cl.) [1]: 5.83 mL/min/kg
- pEC50 [2]: 8.72

SMILES: COCCn1c(Cc2ccc(-c3cccc(OCc4cccnc4OC)n3)cc2F)nc2ccc(C(=O)O)cc21 [Example 511, 2-(2-fluoro-4-(6-((2-methoxypyridin-3-yl)methoxy)pyridin-2-yl)benzyl)-1-(2-methoxyethyl)-1H-benzo[d]imidazole-6-carboxylic acid]
- Predicted Hepatic Clearance (Pred. Cl.) [1]: 18.7 mL/min/kg
- pEC50 [2]: 7.53

SMILES: CCn1cnnc1Cn1c(Cc2ccc(-c3cccc(OCc4ccc(C#N)cc4F)n3)cc2F)nc2ccc(C(=O)O)cc21 [Example 404, 2-(4-(6-((4-cyano-2-fluorobenzyl)oxy)pyridin-2-yl)-2-fluorobenzyl)-1-((4-ethyl-4H-1,2,4-triazol-3-yl)methyl)-1H-benzo[d]imidazole-6-carboxylic acid]
- Predicted Hepatic Clearance (Pred. Cl.) [1]: <1.83 mL/min/kg
- pEC50 [2]: 8.77

SMILES: CC(C)(C#N)Cn1c(Cc2ccc(-c3cccc(OCc4ccc(C#N)cc4F)n3)cc2F)nc2ccc(C(=O)O)cc21 [Example 14, 2-(4-(6-((4-cyano-2-fluorobenzyl)oxy)pyridin-2-yl)-2-fluorobenzyl)-1-(2-cyano-2-methylpropyl)-1H-benzo[d]imidazole-6-carboxylic acid]
- Predicted Hepatic Clearance (Pred. Cl.) [1]: 5 mL/min/kg
- pEC50 [2]: 8.50

SMILES: COCCn1c(Cc2ccc(-c3cccc(OCc4ccncc4OC)n3)c(F)c2)nc2ccc(C(=O)O)cc21 [Example 96, 2-(3-fluoro-4-(6-((3-methoxypyridin-4-yl)methoxy)pyridin-2-yl)benzyl)-1-(2-methoxyethyl)-1H-benzo[d]imidazole-6-carboxylic acid]
- Predicted Hepatic Clearance (Pred. Cl.) [1]: 17.8 mL/min/kg
- pEC50 [2]: 7.51

SMILES: COCCn1c(Cc2ccc(-c3cccc(OCC(=O)c4ccc(Cl)cc4)n3)cc2F)nc2ccc(C(=O)O)cc21 [Example 212, 2-(4-(6-(2-(4-Chlorophenyl)-2-oxoethoxy)pyridin-2-yl)-2-fluorobenzyl)-1-(2-methoxyethyl)-1H-benzo[d]imidazole-6-carboxylic acid]
- Predicted Hepatic Clearance (Pred. Cl.) [1]: <1.83 mL/min/kg
- pEC50 [2]: 7.10

SMILES: Cc1cc(-c2ccc(F)c(OCc3ccc(C#N)cc3F)n2)ccc1Cc1nc2ccc(C(=O)O)cc2n1C[C@@H]1CCO1 [Example 686]
- Predicted Hepatic Clearance (Pred. Cl.) [1]: 4 mL/min/kg
- pEC50 [2]: 9.26

SMILES: COC(CN)Cn1c(Cc2ccc(-c3cccc(OCc4ccc(C#N)cc4F)n3)cc2F)nc2ccc(C(=O)O)cc21 (single isomer, unassigned) [Example 340, 1-(3-amino-2-methoxypropyl)-2-(4-(6-((4-cyano-2-fluorobenzyl)oxy)pyridin-2-yl)-2-fluorobenzyl)-1H-benzo[d]imidazole-6-carboxylic acid]
- Predicted Hepatic Clearance (Pred. Cl.) [1]: <1.83 mL/min/kg
- pEC50 [2]: 7.36

SMILES: COCCn1c(Cc2cc(F)c(-c3cccc(OCc4ccc(Cl)nc4F)n3)cc2F)nc2ccc(C(=O)O)cc21 [Example 823]
- Predicted Hepatic Clearance (Pred. Cl.) [1]: 1.83 mL/min/kg
- pEC50 [2]: 7.70

SMILES: N#Cc1ccc(COc2cccc(-c3cc(F)c(Cc4nc5ccc(C(=O)O)cc5n4C4CCCC4(F)F)cc3F)n2)c(F)c1 (centres unmarked) [Example 700]
- Predicted Hepatic Clearance (Pred. Cl.) [1]: 5.17 mL/min/kg
- pEC50 [2]: 8.46

SMILES: CC(C)n1c(Cc2ccc(-c3cccc(OCc4ccc(C#N)cc4F)n3)cc2F)nc2ccc(C(=O)O)cc21 [Example 347, 2-(4-(6-((4-cyano-2-fluorobenzyl)oxy)pyridin-2-yl)-2-fluorobenzyl)-1-isopropyl-1H-benzo[d]imidazole-6-carboxylic acid]
- Predicted Hepatic Clearance (Pred. Cl.) [1]: 5.5 mL/min/kg
- pEC50 [2]: 7.03

SMILES: N#Cc1ccc(COc2nc(-c3cc(F)c(Cc4nc5ccc(C(=O)O)cc5n4C[C@@H]4CCO4)cc3F)ccc2F)c(F)c1 [Example 450, (S)-2-(4-(6-((4-cyano-2-fluorobenzyl)oxy)-5-fluoropyridin-2-yl)-2,5-difluorobenzyl)-1-(oxetan-2-ylmethyl)-1H-benzo[d]imidazole-6-carboxylic acid]
- Predicted Hepatic Clearance (Pred. Cl.) [1]: <1.83 mL/min/kg
- pEC50 [2]: 9.11

SMILES: COCCn1c(Cc2cc(F)c(-c3cccc(OCc4ccc(OC)nc4)n3)cc2F)nc2ccc(C(=O)O)cc21 [Example 866, 2-[[2,5-difluoro-4-[6-[(6-methoxy-3-pyridyl)methoxy]-2-pyridyl]phenyl]methyl]-3-(2-methoxyethyl)benzimidazole-5-carboxylic acid]
- Predicted Hepatic Clearance (Pred. Cl.) [1]: 8.17 mL/min/kg
- pEC50 [2]: 7.79

SMILES: N#Cc1ccc(COc2cccc(-c3ccc(Cc4nc5ccc(C(=O)O)cc5n4C[C@H]4CCCO4)c(F)c3)n2)c(F)c1 [Example 198, (R)-2-(4-(6-((4-cyano-2-fluorobenzyl)oxy)pyridin-2-yl)-2-fluorobenzyl)-1-((tetrahydrofuran-2-yl)methyl)-1H-benzo[d]imidazole-carboxylic acid]
- Predicted Hepatic Clearance (Pred. Cl.) [1]: 5.17 mL/min/kg
- pEC50 [2]: 8.06

SMILES: N#Cc1ccc(COc2cccc(-c3cc(F)c(Cc4nc5ccc(C(=O)O)cc5n4C[C@@H]4CCO4)cc3F)n2)cc1 [Example 536, (S)-2-(4-(6-((4-cyanobenzyl)oxy)pyridin-2-yl)-2,5-difluorobenzyl)-1-(oxetan-2-ylmethyl)-1H-benzo[d]imidazole-6-carboxylic acid]
- Predicted Hepatic Clearance (Pred. Cl.) [1]: 2.42 mL/min/kg
- pEC50 [2]: 10.40

SMILES: CCn1c(Cn2c(Cc3ccc(-c4cccc(OCc5ccc(C#N)cc5F)n4)cc3F)nc3ccc(C(=O)O)cc32)cnc1C [Example 519, 2-(4-(6-((4-cyano-2-fluorobenzyl)oxy)pyridin-2-yl)-2-fluorobenzyl)-1-((l-ethyl-2-methyl-1H-imidazol-5-yl)methyl)-1H-benzo[d]imidazole-6-carboxylic acid]
- Predicted Hepatic Clearance (Pred. Cl.) [1]: 3.5 mL/min/kg
- pEC50 [2]: 7.41

SMILES: N#Cc1ccc(COc2ccc(F)c(-c3cc(F)c(Cc4nc5ccc(C(=O)O)cc5n4C[C@@H]4CCO4)cc3F)n2)c(F)c1 [Example 793]
- Predicted Hepatic Clearance (Pred. Cl.) [1]: 5.67 mL/min/kg
- pEC50 [2]: 9.77

SMILES: COC(Cn1c(Cc2ccc(-c3cccc(OCc4ccc(C#N)cc4F)n3)cc2F)nc2ccc(C(=O)O)cc21)C(=O)Nc1nccs1 (single isomer, unassigned) [Example 329, 2-(4-(6-((4-cyano-2-fluorobenzyl)oxy)pyridin-2-yl)-2-fluorobenzyl)-1-(2-methoxy-3-oxo-3-(thiazol-2-ylamino)propyl)-1H-benzo[d]imidazole-6-carboxylic acid]
- Predicted Hepatic Clearance (Pred. Cl.) [1]: 7.83 mL/min/kg
- pEC50 [2]: 6.54

SMILES: COCCn1c(Cc2ccc(-c3cccc(OCc4ccc(C#N)cc4F)n3)cc2F)nc2ccc(C3(C(=O)O)CC3)cc21 [Example 210, 1-(2-(4-(6-((4-cyano-2-fluorobenzyl)oxy)pyridin-2-yl)-2-fluorobenzyl)-1-(2-methoxyethyl)-1H-benzo[d]imidazol-6-yl)cyclopropane-1-carboxylic acid]
- Predicted Hepatic Clearance (Pred. Cl.) [1]: 4.42 mL/min/kg
- pEC50 [2]: ≤ 6.00

SMILES: N#CCC1(Cn2c(Cc3cc(F)c(-c4ccnc(OCc5ccc(C#N)cc5F)n4)cc3F)nc3ccc(C(N)=O)nc32)CC1 [Example 599, 2-(4-(2-((4-cyano-2-fluorobenzyl)oxy)pyrimidin-4-yl)-2,5-difluorobenzyl)-3-((1-(cyanomethyl)cyclopropyl)methyl)-3H-imidazo[4,5-b]pyridine-5-carboxamide]
- Predicted Hepatic Clearance (Pred. Cl.) [1]: 12.3 mL/min/kg
- pEC50 [2]: 9.01

SMILES: COCCn1c(Cc2ccc(-c3cccc(OCc4ccc(COC)cc4F)n3)cc2F)nc2ccc(C(=O)O)cc21 [Example 845, 2-(2-fluoro-4-(6-((2-fluoro-4-(methoxymethyl)benzyl)oxy)pyridin-2-yl)benzyl)-1-(2-methoxyethyl)-1H-benzo[d]imidazole-6-carboxylic acid]
- Predicted Hepatic Clearance (Pred. Cl.) [1]: 12.3 mL/min/kg
- EC50 ([2]; EC50 (nM)): 18 nM

SMILES: COCCn1c(Cc2cc(F)c(-c3cccc(OCc4ccc(C5=CCNCC5)cc4F)n3)cc2F)nc2ccc(C(=O)O)cc21 [Example 901, 2-(2,5-difluoro-4-(6-((2-fluoro-4-(1,2,3,6-tetrahydropyridin-4-yl)benzyl)oxy)pyridin-2-yl)benzyl)-1-(2-methoxyethyl)-1H-benzo[d]imidazole-6-carboxylic acid]
- Predicted Hepatic Clearance (Pred. Cl.) [1]: 4.5 mL/min/kg
- pEC50 [2]: 6.79

SMILES: N#Cc1cc(F)c(COc2cccc(-c3cc(F)c(Cc4nc5ccc(C(=O)O)cc5n4C[C@@H]4CCO4)c(F)c3)n2)cc1F [Example 680]
- Predicted Hepatic Clearance (Pred. Cl.) [1]: 5.5 mL/min/kg
- pEC50 [2]: 9.96

SMILES: COCCn1c(Cc2cc(F)c(-c3cccc(OCc4ccc(-c5cnccn5)cc4F)n3)cc2F)nc2ccc(C(=O)O)cc21 [Example 916]
- Predicted Hepatic Clearance (Pred. Cl.) [1]: 1.83 mL/min/kg
- pEC50 [2]: 8.66

SMILES: COCCn1c(Cc2cc(F)c(-c3cccc(OCc4ccc(C(F)(F)F)c(F)c4F)n3)cc2F)nc2ccc(C(=O)O)cc21 [Example 872, 2-[[4-[6-[[2,3-difluoro-4-(trifluoromethyl)phenyl]methoxy]-2-pyridyl]-2,5-difluoro-phenyl]methyl]-3-(2-methoxyethyl)benzimidazole-5-carboxylic acid]
- Predicted Hepatic Clearance (Pred. Cl.) [1]: 1.83 mL/min/kg
- pEC50 [2]: 8.29

SMILES: O=C(O)c1ccc2nc(Cc3ccc(-c4ccnc(OCc5ccc(C(F)F)cc5F)n4)c(F)c3)n(C[C@@H]3CCO3)c2c1 [Example 790]
- Predicted Hepatic Clearance (Pred. Cl.) [1]: 3 mL/min/kg
- pEC50 [2]: 9.36

SMILES: O=C(O)c1ccc2nc(Cc3ccc(-c4ccc(F)c(OCc5ccc(C(F)F)cc5F)n4)cc3F)n(C[C@@H]3CCO3)c2c1 [Example 773]
- Predicted Hepatic Clearance (Pred. Cl.) [1]: 1.83 mL/min/kg
- pEC50 [2]: 9.92
